We go through 4 compounds from patent US10208056B2, “Condensed tricyclic compounds as protein kinase inhibitors” (FUNDACIÓN DEL SECTOR PÚBLICO ESTATAL CENTRO NACIONAL DE …, priority 2015, dated 2019).

The test system of one assay is MV4:11. Put plainly: In vitro cell proliferation assay (CellTiter-Glo), MV4:11. It counts as cell-based. Conditions: Homo sapiens, MV4-11, growth inhibition, read-out: GI50 MV4:11. (In general: In ATP-based viability assays light output follows the ATP content of the culture.)
For a further assay, the target named is CDK19/Cyclin C (Homo sapiens (Human), UniProt Q9BWU1). Description: CDK19/Cyclin C binding assay (LanthaScreen Eu-Kinase Binding Assay). The following applies: read-out: CDK19-CYCC IC50. The gist of the method: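 LanthaScreen TR-FRET tracer-displacement format with 2 nM Cdk19-Cyclin C, 20 nM tracer and 2 nM Eu-anti-GST antibody. The buffer was 50 mM HEPES pH 7.5, 10 mM MgCl2, 1 mM EGTA, 0.01% Brij-35, with 1% DMSO final. Compounds were tested as 1:3 serial dilutions and incubated for 60 min at 25 °C.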
On the technique in general: Time-resolved FRET reads energy transfer from a long-lived donor to a nearby acceptor.

The next assay deals with intracellular HASPIN (Homo sapiens (Human), UniProt Q8TF76). Description: Cellular HASPIN inhibition assay, western blot phospho H3T3 in synchronized SW620 cells. Conditions: read-out: SW620 PH3(T3) in synchronized cells. The assay is classed as cell-based. On the technique in general: A western blot detects proteins with antibodies after separation by electrophoresis.

Structures are written as SMILES. Like-named read-outs stand apart in the source and are kept apart here.

Sequence of CDK19/Cyclin C (Q9BWU1 whole entry): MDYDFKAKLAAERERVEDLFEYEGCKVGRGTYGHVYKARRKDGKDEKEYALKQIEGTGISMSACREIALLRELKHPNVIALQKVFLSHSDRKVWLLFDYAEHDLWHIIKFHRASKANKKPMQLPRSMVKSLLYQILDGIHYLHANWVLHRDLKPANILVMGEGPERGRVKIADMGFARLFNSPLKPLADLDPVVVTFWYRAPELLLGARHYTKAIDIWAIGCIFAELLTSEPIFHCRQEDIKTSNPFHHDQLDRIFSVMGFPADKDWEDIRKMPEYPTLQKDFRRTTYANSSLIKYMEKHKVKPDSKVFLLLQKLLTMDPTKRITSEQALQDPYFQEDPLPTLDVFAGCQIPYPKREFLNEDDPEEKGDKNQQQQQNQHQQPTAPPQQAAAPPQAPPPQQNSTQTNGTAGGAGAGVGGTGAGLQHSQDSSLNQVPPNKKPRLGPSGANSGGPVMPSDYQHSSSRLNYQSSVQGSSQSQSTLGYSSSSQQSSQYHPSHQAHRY
Sequence of CDK19/Cyclin C (P24863 whole entry partner): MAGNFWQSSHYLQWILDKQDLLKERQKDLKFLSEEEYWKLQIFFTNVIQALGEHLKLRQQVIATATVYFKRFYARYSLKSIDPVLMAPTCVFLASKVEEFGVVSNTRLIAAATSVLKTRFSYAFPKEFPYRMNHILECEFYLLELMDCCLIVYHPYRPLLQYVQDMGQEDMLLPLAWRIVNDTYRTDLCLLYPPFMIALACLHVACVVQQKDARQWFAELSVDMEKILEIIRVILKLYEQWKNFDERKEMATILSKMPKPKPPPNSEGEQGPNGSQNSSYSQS
Sequence of intracellular HASPIN (Q8TF76 whole entry): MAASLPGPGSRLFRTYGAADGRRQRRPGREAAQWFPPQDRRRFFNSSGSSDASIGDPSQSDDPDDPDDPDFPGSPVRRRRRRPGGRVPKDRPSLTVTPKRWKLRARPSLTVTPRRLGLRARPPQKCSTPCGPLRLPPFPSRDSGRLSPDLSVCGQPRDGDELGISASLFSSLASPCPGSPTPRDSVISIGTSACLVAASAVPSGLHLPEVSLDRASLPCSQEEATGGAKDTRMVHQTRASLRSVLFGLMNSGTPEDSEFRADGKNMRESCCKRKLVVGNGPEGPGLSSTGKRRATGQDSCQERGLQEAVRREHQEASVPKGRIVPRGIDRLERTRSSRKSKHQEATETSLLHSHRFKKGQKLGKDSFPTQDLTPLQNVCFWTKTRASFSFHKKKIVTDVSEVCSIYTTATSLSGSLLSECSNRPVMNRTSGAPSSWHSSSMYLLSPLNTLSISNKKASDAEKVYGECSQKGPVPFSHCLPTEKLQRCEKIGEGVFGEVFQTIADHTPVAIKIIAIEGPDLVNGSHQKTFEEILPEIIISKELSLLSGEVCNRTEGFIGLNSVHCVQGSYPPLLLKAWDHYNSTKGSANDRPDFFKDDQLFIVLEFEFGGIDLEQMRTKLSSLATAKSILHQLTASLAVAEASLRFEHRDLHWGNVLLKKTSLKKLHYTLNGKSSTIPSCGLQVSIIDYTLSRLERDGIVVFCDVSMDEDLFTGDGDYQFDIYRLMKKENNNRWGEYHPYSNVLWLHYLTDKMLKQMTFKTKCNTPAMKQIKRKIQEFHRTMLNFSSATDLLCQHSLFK

What is called GI50 is the concentration giving 50% growth inhibition. The term IC50 denotes the concentration needed to halve the response being measured. Take `NC(=O)c1cc2c([nH]1)-c1ccncc1O[C@H]2C1CCOCC1` (single isomer, unassigned) [Example 72]: the GI50 with MV4:11 (semiquantitative) was 1000 to 10000 nM. Further, the IC50 at CDK19/Cyclin C stood at 14.2 nM. Further, the EC50 at intracellular HASPIN (semiquantitative) lay within 500 to 10000 nM.

As for `CCn1c(C(N)=O)cc2c1-c1ccncc1OC2(C)C` [Example 43], in the assay with MV4:11 (quantitative), the GI50 was found to be 115 nM. For the same compound, the IC50 at CDK19/Cyclin C amounted to 1.09 nM. For the same compound, the EC50 at intracellular HASPIN (quantitative) is 15 nM.

Turning to `CC1(C)Oc2cnccc2-c2c1cc(C(N)=O)n2CCF` [Example 52], in the assay on MV4:11 (semiquantitative), the GI50 is < 1000 nM. Further, the IC50 on CDK19/Cyclin C was 1.41 nM. Also, on intracellular HASPIN (semiquantitative), the EC50 was < 500 nM.

For `CCn1c(C(N)=O)c(-c2ccccc2OC)c2c1-c1ccncc1OC2(C)C` [Example 68], the GI50 in the assay on MV4:11 (semiquantitative) is < 1000 nM. For the same compound, at CDK19/Cyclin C, the IC50 is 16.4 nM. Besides, on intracellular HASPIN (semiquantitative), the EC50 is < 500 nM.
